Data from PubChem BioAssay (NCI).
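Where inhibition never reached the appropriate level, the endpoint shown equals the highest concentration tested. Otherwise, values were interpolated linearly from a five-concentration, 48-hour dose response in 96-well plates. GI50 marks 50% less growth. At the TGI there is no net growth.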

Key:
Assay in all cases: NCI anticancer screen, dose series, 48 h
OVCAR-5 ovarian = tested on: OVCAR-5 ovarian
NCI-H23 lung = tested on: NCI-H23 lung
HCT-15 colon = tested on: HCT-15 colon
TK-10 renal = tested on: TK-10 renal
HCT-116 colon = tested on: HCT-116 colon
CAKI-1 renal = tested on: CAKI-1 renal
KM20L2 colon = tested on: KM20L2 colon
SN12C renal = tested on: SN12C renal
MALME-3M melanoma = tested on: MALME-3M melanoma
K-562 leukemia = tested on: K-562 leukemia
SF-268 CNS = tested on: SF-268 CNS
786-0 renal = tested on: 786-0 renal
HOP-92 NSCLC = tested on: HOP-92 NSCLC
HOP-62 NSCLC = tested on: HOP-62 NSCLC
LOX IMVI melanoma = tested on: LOX IMVI melanoma
UACC-62 melanoma = tested on: UACC-62 melanoma
SNB-75 CNS = tested on: SNB-75 CNS
NCI-H460 lung = tested on: NCI-H460 lung
UO-31 renal = tested on: UO-31 renal
M14 melanoma = tested on: M14 melanoma
IGROV1 ovarian = tested on: IGROV1 ovarian
DMS 114 small cell lung = tested on: DMS 114 small cell lung
SK-OV-3 ovarian = tested on: SK-OV-3 ovarian
NCI-H226 lung = tested on: NCI-H226 lung
LXFL 529 NSCLC = tested on: LXFL 529 NSCLC
COLO 205 colon = tested on: COLO 205 colon
OVCAR-8 ovarian = tested on: OVCAR-8 ovarian
KM12 colon = tested on: KM12 colon
UACC-257 melanoma = tested on: UACC-257 melanoma
SW-620 colon = tested on: SW-620 colon
MOLT-4 leukemia = tested on: MOLT-4 leukemia
A549 NSCLC = tested on: A549 NSCLC
EKVX NSCLC = tested on: EKVX NSCLC
M19-MEL melanoma = tested on: M19-MEL melanoma
SF-295 CNS = tested on: SF-295 CNS
SK-MEL-2 melanoma = tested on: SK-MEL-2 melanoma
A498 renal = tested on: A498 renal
SK-MEL-28 melanoma = tested on: SK-MEL-28 melanoma
HCC-2998 colon = tested on: HCC-2998 colon
OVCAR-4 ovarian = tested on: OVCAR-4 ovarian
DMS 273 small cell lung = tested on: DMS 273 small cell lung
SK-MEL-5 melanoma = tested on: SK-MEL-5 melanoma
HL-60(TB) leukemia = tested on: HL-60(TB) leukemia
OVCAR-3 ovarian = tested on: OVCAR-3 ovarian
SNB-19 CNS = tested on: SNB-19 CNS
CCRF-CEM leukemia = tested on: CCRF-CEM leukemia
DLD-1 colon = tested on: DLD-1 colon
NCI-H522 lung = tested on: NCI-H522 lung
RPMI-8226 leukemia = tested on: RPMI-8226 leukemia
ACHN renal = tested on: ACHN renal
SF-539 CNS = tested on: SF-539 CNS
HT29 colon = tested on: HT29 colon
RXF 393 renal = tested on: RXF 393 renal
U251 CNS = tested on: U251 CNS

Work on `[Ce+3].[Cl-].[O-]/N=C(\c1ccccc1)c1ccccn1.[O-]/N=C(\c1ccccc1)c1ccccn1.[O-]/N=C(\c1ccccc1)c1ccccn1` yielded a GI50 (OVCAR-5 ovarian) of over 100 µM, a TGI (OVCAR-5 ovarian) of over 100 µM and a GI50 (NCI-H23 lung) of 59.8 µM. It also gave a TGI (NCI-H23 lung) of over 100 µM, a GI50 (HCT-15 colon) of 38.1 µM and a TGI (HCT-15 colon) of over 100 µM. The GI50 (TK-10 renal) was 51.4 µM, the TGI (TK-10 renal) was over 100 µM and the GI50 (HCT-116 colon) was 33.8 µM. It also gave a TGI (HCT-116 colon) of over 100 µM, a GI50 (CAKI-1 renal) of 32.4 µM and a TGI (CAKI-1 renal) of over 100 µM. It also gave a GI50 (KM20L2 colon) of over 100 µM, a TGI (KM20L2 colon) of over 100 µM and a GI50 (SN12C renal) of 47.9 µM. It also gave a TGI (SN12C renal) of over 100 µM, a GI50 (MALME-3M melanoma) of 69.8 µM and a TGI (MALME-3M melanoma) of over 100 µM. It also gave a GI50 (K-562 leukemia) of 36.3 µM, a TGI (K-562 leukemia) of over 100 µM and a GI50 (SF-268 CNS) of 44.4 µM. For the same compound, the TGI (SF-268 CNS) was over 100 µM, the GI50 (786-0 renal) was 47 µM and the TGI (786-0 renal) was over 100 µM. It also gave a GI50 (HOP-92 NSCLC) of 25.1 µM, a TGI (HOP-92 NSCLC) of over 100 µM and a GI50 (HOP-62 NSCLC) of 30.3 µM. It also gave a TGI (HOP-62 NSCLC) of over 100 µM, a GI50 (LOX IMVI melanoma) of 26 µM and a TGI (LOX IMVI melanoma) of 64.7 µM. The GI50 (UACC-62 melanoma) was 39.7 µM, the TGI (UACC-62 melanoma) was over 100 µM and the GI50 (SNB-75 CNS) was 15.1 µM. For the same compound, the TGI (SNB-75 CNS) was 66 µM, the GI50 (NCI-H460 lung) was 47.1 µM and the TGI (NCI-H460 lung) was over 100 µM. It also gave a GI50 (UO-31 renal) of 28.1 µM, a TGI (UO-31 renal) of 82.9 µM and a GI50 (M14 melanoma) of 35.7 µM. The TGI (M14 melanoma) was over 100 µM, the GI50 (IGROV1 ovarian) was 39.6 µM and the TGI (IGROV1 ovarian) was over 100 µM. For the same compound, the GI50 (DMS 114 small cell lung) was 28.3 µM, the TGI (DMS 114 small cell lung) was 85 µM and the GI50 (SK-OV-3 ovarian) was 37.2 µM. It also gave a TGI (SK-OV-3 ovarian) of over 100 µM, a GI50 (NCI-H226 lung) of 21.5 µM and a TGI (NCI-H226 lung) of 72 µM. It also gave a GI50 (LXFL 529 NSCLC) of 44.4 µM, a TGI (LXFL 529 NSCLC) of over 100 µM and a GI50 (COLO 205 colon) of 33.1 µM. For the same compound, the TGI (COLO 205 colon) was over 100 µM, the GI50 (OVCAR-8 ovarian) was 37.9 µM and the TGI (OVCAR-8 ovarian) was over 100 µM. For the same compound, the GI50 (KM12 colon) was 46.8 µM, the TGI (KM12 colon) was over 100 µM and the GI50 (UACC-257 melanoma) was 38 µM. The TGI (UACC-257 melanoma) was over 100 µM, the GI50 (SW-620 colon) was 46.1 µM and the TGI (SW-620 colon) was over 100 µM. The GI50 (MOLT-4 leukemia) was 27.7 µM, the TGI (MOLT-4 leukemia) was over 100 µM and the GI50 (A549 NSCLC) was 42.4 µM. For the same compound, the TGI (A549 NSCLC) was over 100 µM, the GI50 (EKVX NSCLC) was 30.2 µM and the TGI (EKVX NSCLC) was over 100 µM. The GI50 (M19-MEL melanoma) was 35.8 µM, the TGI (M19-MEL melanoma) was over 100 µM and the GI50 (SF-295 CNS) was 37.2 µM. For the same compound, the TGI (SF-295 CNS) was over 100 µM, the GI50 (SK-MEL-2 melanoma) was 30.9 µM and the TGI (SK-MEL-2 melanoma) was 76.6 µM. For the same compound, the GI50 (A498 renal) was 54 µM, the TGI (A498 renal) was over 100 µM and the GI50 (SK-MEL-28 melanoma) was 37.9 µM. It also gave a TGI (SK-MEL-28 melanoma) of over 100 µM, a GI50 (HCC-2998 colon) of 35.3 µM and a TGI (HCC-2998 colon) of over 100 µM. It also gave a GI50 (OVCAR-4 ovarian) of 55 µM, a TGI (OVCAR-4 ovarian) of over 100 µM and a GI50 (DMS 273 small cell lung) of 31.9 µM. For the same compound, the TGI (DMS 273 small cell lung) was over 100 µM, the GI50 (SK-MEL-5 melanoma) was 28.8 µM and the TGI (SK-MEL-5 melanoma) was 85.8 µM. The GI50 (HL-60(TB) leukemia) was 18.7 µM, the TGI (HL-60(TB) leukemia) was 60.2 µM and the GI50 (OVCAR-3 ovarian) was 21.4 µM. It also gave a TGI (OVCAR-3 ovarian) of 90.3 µM, a GI50 (SNB-19 CNS) of 42.6 µM and a TGI (SNB-19 CNS) of over 100 µM. For the same compound, the GI50 (CCRF-CEM leukemia) was 29.3 µM, the TGI (CCRF-CEM leukemia) was over 100 µM and the GI50 (DLD-1 colon) was 40 µM. The TGI (DLD-1 colon) was over 100 µM, the GI50 (NCI-H522 lung) was 21.9 µM and the TGI (NCI-H522 lung) was 73.6 µM. It also gave a GI50 (RPMI-8226 leukemia) of 59.7 µM, a TGI (RPMI-8226 leukemia) of over 100 µM and a GI50 (ACHN renal) of 48.9 µM. The TGI (ACHN renal) was over 100 µM, the GI50 (SF-539 CNS) was 31 µM and the TGI (SF-539 CNS) was 91.9 µM. It also gave a GI50 (HT29 colon) of 72 µM, a TGI (HT29 colon) of over 100 µM and a GI50 (RXF 393 renal) of 34.4 µM. For the same compound, the TGI (RXF 393 renal) was 96.3 µM, the GI50 (U251 CNS) was over 100 µM and the TGI (U251 CNS) was over 100 µM.
